The subject of one test is large intestinal transit. Conditions: 50 mg/kg bisacodyl given orally, rat; cited from earlier work.
In another test the test system is small bowel transit. The test is described as follows: Small bowel (small intestinal) transit of a charcoal marker in rats. The test is classed as in vivo, rat. The protocol: A study was performed to characterize and compare the effects of bisacodyl, simethicone and combinations of bisacodyl and simethicone on small bowel transit time. Small intestinal transit time was studied as a surrogate for […] in the rat. Leng-Peschlow, E., “Effect of Sennosides A+B and Bisacodyl on rat large intestine”, Pharmacology, vol. 38 (1989), 310-318 (1989). […] The prokinetic efficacy of bisacodyl in the small intestine may differ from that observed in the large intestine by Leng-Psechlow. For the small intestinal transit model a sub-therapeutic dose of 25mg/kg bisacodyl was chosen. Rats were dosed with a suspension of powdered charcoal, which served as a non-absorbable marker. The rats were also dosed with bisacodyl USP 23 (ZetaPharm, Inc.) and simethicone supplied as […]® drops and activated charcoal (Sigma Chemical). Six treatments were compared a control; simethicone 15 mg/kg; bisacodyl 25 mg/kg; and bisacodyl 25 mg/kg and simethicone at 5, 10 or 15 mg/kilogram. Dosing preparations of charcoal suspension (10 weight percent) were made freshly each day by adding dry powder to 0.5 percent methylcellulose in water and stirring. Dosing preparations were made each day by adding the appropriate quantity of bisacodyl and/or simethicone drops to the charcoal suspension. All treatments were administered orally, using the dose volume of 10 milliliters per kilogram. Sixty minutes after dosing, the rats were sacrificed and small bowel transit rate was determined by identifying the charcoal marker and measuring its distance from the pylorus.

For another test, the system named is fecal output. Conditions: 10-100 mg/kg bisacodyl given orally, rat; cited from earlier work.

SMILES strings stand for the structures.

Take `CC(=O)Oc1ccc(C(c2ccc(OC(C)=O)cc2)c2ccccn2)cc1` [Bisacodyl, bisacodyl]: the large intestinal transit entry with large intestinal transit is on record as “significantly stimulated”. In addition, the Mean % traveled with small bowel transit (bisacodyl 25 mg/kg oral, rat, charcoal marker, 60 min after dosing) worked out at 80.7%. The “% Increase” value with small bowel transit (compared to vehicle control, bisacodyl 25 mg/kg oral, rat) is on record as 1%. In addition, in the test on small bowel transit (rats treated with simethicone alone or bisacodyl alone), the “small bowel transit compared with control” value is reported as “not different from control”. Moreover, the fecal output result in the test on fecal output is recorded as “increased fecal output”.

The values are drawn from patent US20020071872A1, “Laxative composition” (priority 1999, published 2002).
